Reference: patent US8415351B2 (priority 2007, dated 2013)

Legend:
[1] = tested on: genotype 1a-H77 subgenomic replicon cell line; assay: microbe, parasite or virus in culture; format: cell-based, HCV; conditions: Hepatitis C virus, read-out: EC50 1a
[2] = tested on: genotype 1b-Con1 subgenomic replicon cell line; assay: microbe, parasite or virus in culture; format: cell-based, HCV; conditions: Hepatitis C virus, read-out: EC50 1b
[3] = molecular target: T1, HCV polymerase 1B (Δ21 NS5B, BK) (Hepatitis C virus genotype 1b, UniProt P26663); assay: biochemical
T1 construct: 20 to 50 nM Δ21 NS5B
How it was run: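 Δ21 NS5B (genotype 1b, BK […]) preincubated 15 min RT with inhibitor, 2 mM MnCl2, pH 7.4, 60–125 μM GTP; started with 20 μM CTP/ATP, 1 μM 3H-UTP, 5 nM template RNA, run 2–4 h RT. Spermine-precipitated RNA filter-captured, scintillation counted; IC50 from tight-binding (Morrison) fit.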

[4] = molecular target: T2, HCV polymerase 1A (Δ21 NS5B, H77) (Hepatitis C virus genotype 1a, UniProt P27958); assay: biochemical; conditions: IC50 1a
T2 construct: 20 to 50 nM Δ21 NS5B
How it was run: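 Incorporation of 1 μM ^3H-UTP, with 20 μM each of CTP and ATP on 5 nM template RNA, ran 2–4 h at room temperature. Spermine-precipitated product was filtered and scintillation-counted. IC50 came from tight-binding non-linear regression of cpm against inhibitor concentration.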

T1 sequence (P26663 2420-2989, stated change not applied): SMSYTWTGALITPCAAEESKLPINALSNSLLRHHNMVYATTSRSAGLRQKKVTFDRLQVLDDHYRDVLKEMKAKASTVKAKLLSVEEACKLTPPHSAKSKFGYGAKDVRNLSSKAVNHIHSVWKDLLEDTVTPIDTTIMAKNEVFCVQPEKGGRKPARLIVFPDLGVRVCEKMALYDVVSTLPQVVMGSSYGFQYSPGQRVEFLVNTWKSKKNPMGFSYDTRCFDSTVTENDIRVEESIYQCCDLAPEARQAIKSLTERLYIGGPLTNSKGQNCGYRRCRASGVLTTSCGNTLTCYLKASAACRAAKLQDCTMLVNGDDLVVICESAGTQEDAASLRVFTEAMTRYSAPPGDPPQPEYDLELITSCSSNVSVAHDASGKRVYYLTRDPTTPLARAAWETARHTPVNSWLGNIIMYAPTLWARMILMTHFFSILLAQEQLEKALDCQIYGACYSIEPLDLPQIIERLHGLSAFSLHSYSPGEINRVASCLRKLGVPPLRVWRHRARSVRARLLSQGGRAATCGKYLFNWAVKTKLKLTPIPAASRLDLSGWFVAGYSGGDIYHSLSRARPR
T2 sequence (P27958 2421-2990, stated change not applied): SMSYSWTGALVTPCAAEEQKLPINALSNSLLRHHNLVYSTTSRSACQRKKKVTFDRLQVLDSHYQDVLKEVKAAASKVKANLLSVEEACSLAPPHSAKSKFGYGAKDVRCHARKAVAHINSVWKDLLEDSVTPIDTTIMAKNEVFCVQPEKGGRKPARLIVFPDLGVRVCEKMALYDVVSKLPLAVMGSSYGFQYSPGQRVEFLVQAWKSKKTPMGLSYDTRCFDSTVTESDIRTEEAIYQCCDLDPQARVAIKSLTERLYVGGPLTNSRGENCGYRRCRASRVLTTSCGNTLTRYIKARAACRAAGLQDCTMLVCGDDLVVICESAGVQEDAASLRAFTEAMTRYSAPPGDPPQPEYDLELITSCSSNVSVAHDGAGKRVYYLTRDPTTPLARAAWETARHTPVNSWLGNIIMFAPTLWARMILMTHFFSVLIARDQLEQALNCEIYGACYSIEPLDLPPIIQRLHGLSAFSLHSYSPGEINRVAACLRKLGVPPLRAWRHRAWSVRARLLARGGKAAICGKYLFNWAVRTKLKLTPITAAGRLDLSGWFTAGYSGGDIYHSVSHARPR

| SMILES | EC50 [1] [nM] | EC50 [2] [nM] | melting point [°C] | IC50 [3] [nM] | IC50 [4] [nM] |
| --- | --- | --- | --- | --- | --- |
| CC(C)(C)c1cc(-n2ccc(=O)[nH]c2=O)cc(-c2ccc3cc(NS(C)(=O)=O)ccc3c2)c1Cl [IB-L0-2.14, N-(6-(3-tert-butyl-2-chloro-5-(2,4-dioxo-3,4-dihydropyrimidin-1(2H)-yl)phenyl)naphthalen-2-yl)methanesulfonamide] | 100 to 1000 | 10 to 100 | > 280 | – | – |
| COc1c(-c2ccc3cc(NS(C)(=O)=O)ccc3c2)cc(-n2ccc(=O)[nH]c2=O)cc1C(C)(C)C(=O)O [IB-L0-2.77, 2-(5-(2,4-dioxo-3,4-dihydropyrimidin-1(2H)-yl)-2-methoxy-3-(6-(methylsulfonamido)naphthalen-2-yl)phenyl)-2-methylpropanoic acid] | – | – | > 300 | – | – |
| Cc1cc(NS(C)(=O)=O)ccc1C#Cc1cc(N2CCC(=O)NC2=O)cc(C(C)(C)C)c1 [IA-L2-1.2, N-(4-((3-tert-butyl-5-(2,4-dioxotetrahydropyrimidin-1(2H)-yl)phenyl)ethynyl)-3-methyl-phenyl)methanesulfonamide] | 10 to 100 | 10 to 100 | – | < 10 | < 10 |
| COc1c(C#Cc2ccc(NS(C)(=O)=O)cc2C(=O)N2CCOCC2)cc(-n2ccc(=O)[nH]c2=O)cc1C(C)(C)C [IB-L2-1.11, N-(4-((3-tert-butyl-5-(2,4-dioxo-3,4-dihydropyrimidin-1(2H)-yl)-2-methoxyphenyl)ethynyl)-3-(morpholine-4-carbonyl)phenyl)methanesulfonamide] | 100 to 1000 | 10 to 100 | – | 10 to 100 | 10 to 100 |
| COc1cc(NS(C)(=O)=O)ccc1C(=O)Nc1cc(N2CCC(=O)NC2=O)cc(C(C)(C)C)c1OC [IA-L4-1.11, N-(3-tert-butyl-5-(2,4-dioxotetrahydropyrimidin-1(2H)-yl)-2-methoxyphenyl)-2-methoxy-4-(methylsulfonamido)benzamide] | 100 to 1000 | 10 to 100 | – | 10 to 100 | < 10 |
| CC(C)(C)c1cc(N2CCC(=O)NC2=O)cc(C(=O)Nc2cccc(CNS(C)(=O)=O)c2)c1O [IA-L3-1.11, 3-tert-butyl-5-(2,4-dioxotetrahydropyrimidin-1(2H)-yl)-2-hydroxy-N-(3-(methylsulfon-amidomethyl)phenyl)benzamide] | > 1000 | > 1000 | – | 100 to 1000 | > 1000 |
| COc1c(-c2ccc3c(c2)CC[C@@H]3C(C)(C)NS(C)(=O)=O)cc(-n2ccc(=O)[nH]c2=O)cc1C(C)(C)C (single isomer, unassigned) [IB-L0-2.22] | 100 to 1000 | 10 to 100 | – | 10 to 100 | 10 to 100 |
| COc1c(-c2cccc(/C(C)=N/NS(C)(=O)=O)c2)cc(-n2ccc(=O)[nH]c2=O)cc1C(C)(C)C [IB-L0-1.9, (E)-N′-(1-(3′-tert-butyl-5′-(2,4-dioxo-3,4-dihydropyrimidin-1(2H)-yl)-2′-methoxybiphenyl-3-yl)ethylidene)methanesulfonohydrazide] | > 1000 | > 1000 | – | 100 to 1000 | 100 to 1000 |
| CC(C)(C)c1cc(N2CCC(=O)NC2=O)cc(NC(=O)c2ccc(NS(C)(=O)=O)cc2)c1O [IA-L4-1.3, N-(3-tert-butyl-5-(2,4-dioxotetrahydropyrimidin-1(2H)-yl)-2-hydroxyphenyl)-4-(methylsulfon amido)benzamide] | > 1000 | > 1000 | – | 100 to 1000 | 100 to 1000 |
| COc1c(-c2cc(F)c(/C=N/NS(C)(=O)=O)c(F)c2)cc(N2CCC(=O)NC2=O)cc1C(C)(C)C [IA-L0-1.3, (E)-N′-((3′-tert-butyl-5′-(2,4-dioxotetrahydropyrimidin-1(2H)-yl)-3,5-difluoro-2′-methoxybiphenyl-4-yl)methylene)methanesulfonohydrazide] | 100 to 1000 | 100 to 1000 | – | 100 to 1000 | 100 to 1000 |
| COc1c(-c2ccc3c(c2)CC[C@H]3C(C)(C)NS(C)(=O)=O)cc(-n2ccc(=O)[nH]c2=O)cc1C(C)(C)C (single isomer, unassigned) [IB-L0-2.37] | > 1000 | 100 to 1000 | – | 100 to 1000 | 100 to 1000 |
| CC(C)(C)c1cc(N2CCC(=O)NC2=O)cc(C(=O)Nc2cc(CNS(C)(=O)=O)cs2)c1O [IA-L3-1.91, 3-tert-butyl-5-(2,4-dioxotetrahydropyrimidin-1(2H)-yl)-2-hydroxy-N-(4-(methylsulfonamidomethyl)thiophen-2-yl)benzamide] | 100 to 1000 | 100 to 1000 | – | 10 to 100 | 10 to 100 |
| COc1c(C(=O)Nc2ccc(NS(=O)(=O)c3ccccc3)cc2)cc(N2CCC(=O)NC2=O)cc1C(C)(C)C [IA-L3-1.60, 3-tert-butyl-5-(2,4-dioxotetrahydropyrimidin-1(2H)-yl)-2-methoxy-N-(4-(phenylsulfonamido)phenyl)benzamide] | 100 to 1000 | 10 to 100 | – | 10 to 100 | 10 to 100 |
| COc1c(-c2ccc3c(c2)CCC3C(C)(C)NS(C)(=O)=O)cc(-n2ccc(=O)[nH]c2=O)cc1C(C)(C)C (centres unmarked) [IB-L0-2.29, N-(2-(5-(3-tert-butyl-5-(2,4-dioxo-3,4-dihydropyrimidin-1(2H)-yl)-2-methoxyphenyl)-2,3-dihydro-1H-inden-1-yl)propan-2-yl)methanesulfonamide] | 100 to 1000 | 10 to 100 | – | 10 to 100 | 10 to 100 |
| COc1c(COc2ccc(NS(C)(=O)=O)cc2)cc(N2CCC(=O)NC2=O)cc1C(C)(C)C [IA-L6-1.1, N-(4-(3-tert-butyl-5-(2,4-dioxotetrahydropyrimidin-1(2H)-yl)-2-methoxybenzyloxy)phenyl)methanesulfonamide] | 100 to 1000 | 10 to 100 | – | 100 to 1000 | 10 to 100 |
| CC(C)(C)c1cc(N2CCC(=O)NC2=O)cc(C(=O)Nc2ccc(NS(=O)(=O)Cc3ccccc3)cc2)c1O [IA-L3-1.12, 3-tert-butyl-5-(2,4-dioxotetrahydropyrimidin-1(2H)-yl)-2-hydroxy-N-(4-(phenylmethyl-sulfonamido)phenyl)benzamide] | > 1000 | > 1000 | – | 10 to 100 | 100 to 1000 |
| CC(C)(C)c1cc(N2CCC(=O)NC2=O)cc(C(=O)Nc2ccc(NS(=O)(=O)c3ccccc3)cc2)c1O [IA-L3-1.10, 3-tert-butyl-5-(2,4-dioxotetrahydropyrimidin-1(2H)-yl)-2-hydroxy-N-(4-(phenylsulfon-amido)phenyl)benzamide] | 100 to 1000 | 100 to 1000 | – | 10 to 100 | 10 to 100 |
| COc1c(-c2ccc3c(c2)CC=C3CNS(C)(=O)=O)cc(-n2ccc(=O)[nH]c2=O)cc1-c1cccs1 [IB-L0-2.63, N-((6-(5-(2,4-dioxo-3,4-dihydropyrimidin-1(2H)-yl)-2-methoxy-3-(thiophen-2-yl)phenyl)-1H-inden-3-yl)methyl)methanesulfonamide] | 100 to 1000 | 10 to 100 | – | 10 to 100 | 10 to 100 |
| COc1c(-c2ccc3c(c2)CCC3CNS(C)(=O)=O)cc(-n2ccc(=O)[nH]c2=O)cc1C(C)(C)C (centres unmarked) [IB-L0-2.17, N-((5-(3-tert-butyl-5-(2,4-dioxo-3,4-dihydropyrimidin-1(2H)-yl)-2-methoxyphenyl)-2,3-dihydro-1H-inden-1-yl)methyl)methanesulfonamide] | 10 to 100 | < 10 | – | 10 to 100 | < 10 |
| COc1c(-c2ncc(-c3cccc(NS(C)(=O)=O)c3)o2)cc(N2CCC(=O)NC2=O)cc1C(C)(C)C [IA-L0-1.9, N-(3-(2-(3-tert-butyl-5-(2,4-dioxotetrahydropyrimidin-1(2H)-yl)-2-methoxyphenyl)oxazol-5-yl)phenyl)methanesulfonamide] | > 1000 | 100 to 1000 | – | 100 to 1000 | 10 to 100 |
| COc1c(CNc2ccc(NS(C)(=O)=O)cc2)cc(N2CCC(=O)NC2=O)cc1C(C)(C)C [IA-L9-1.4, N-(4-(3-tert-butyl-5-(2,4-dioxotetrahydropyrimidin-1(2H)-yl)-2-methoxybenzylamino)phenyl)methanesulfonamide] | > 1000 | 100 to 1000 | – | 100 to 1000 | 10 to 100 |
| CC(C)(C)c1cc(C(=O)Nc2ccc(NS(C)(=O)=O)cc2)cc(N2CCC(=O)NC2=O)c1 [IA-L3-1.105, 3-tert-butyl-5-(2,4-dioxotetrahydropyrimidin-1(2H)-yl)-N-(4-(methylsulfonamido)phenyl)benzamide] | > 1000 | > 1000 | – | 10 to 100 | 100 to 1000 |
| COc1c(C#C[Si](C)(C)C)cc(-n2ccc(=O)[nH]c2=O)cc1-c1ccc2cc(NS(C)(=O)=O)ccc2c1 [IB-L0-2.78, N-(6-(5-(2,4-dioxo-3,4-dihydropyrimidin-1(2H)-yl)-2-methoxy-3-((trimethylsilyl)ethynyl)phenyl)naphthalen-2-yl)methanesulfonamide] | – | – | 175 to 178 | – | – |
| COc1c(C(=O)N(C)c2ccc(NS(C)(=O)=O)cc2)cc(N2CCC(=O)NC2=O)cc1C(C)(C)C [IA-L3-1.27, 3-tert-butyl-5-(2,4-dioxotetrahydropyrimidin-1(2H)-yl)-2-methoxy-N-methyl-N-(4-(methylsulfonamido)phenyl)benzamide] | > 1000 | > 1000 | – | 100 to 1000 | 100 to 1000 |
